SMILES | melting point [°C]
CCCN(CCC)c1c(CC)nn2c(-c3ccc(Cl)cc3Cl)cccc12.O=C(O)/C=C\C(=O)O [Example 11, 7-(2,4-Dichlorophenyl)-2-ethyl-N,N-dipropylpyrazolo[1,5-a]pyridin-3-amine maleic acid salt] | 106 to 112
CCCN(CCC)c1c(CC)nn2c(-c3ccc(OC)cc3Cl)cccc12 [Example 13, 7-(2-Chloro-4-methoxyphenyl)-2-ethyl-N,N-dipropylpyrazolo[1,5-a]pyridin-3-amine] | 73.6 to 76
CCCN(CCC)c1c(CC)nn2c(-c3ccc(N(C)C)cc3C(F)(F)F)cccc12 [Example 14, 7-[4-(Dimethylamino)-2-(trifluoromethyl)phenyl]-2-ethyl-N,N-dipropylpyrazolo[1,5-a]pyridin-3-amine] | 69.1 to 79.8
CCCN(CCC)c1c(CC)nn2c(-c3ccc(N(C)C)cc3Cl)cccc12 [Example 16, 7-[2-Chloro-4-(dimethylamino)phenyl]-2-ethyl-N,N-dipropylpyrazolo[1,5-a]pyridin-3-amine] | 132.8 to 134.3

Second part, the molecule after the results:

melting point [°C] | SMILES
76 to 79 | CCCN(CCC)c1c(CC)nn2c(-c3ccc(OC)cc3C)cccc12 [Example 12, 2-Ethyl-7-(4-methoxy-2-methylphenyl)-N,N-dipropylpyrazolo[1,5-a]pyridin-3-amine]
98.5 to 100.3 | CCCN(CCC)c1c(CC)nn2c(-c3cnc(N(C)C)cc3C)cccc12 [Example 18, 7-[6-(Dimethylamino)-4-methylpyridin-3-yl]-2-ethyl-N,N-dipropylpyrazolo[1,5-a]pyridin-3-amine]
45.8 to 52.8 | CCc1nn2c(-c3ccc(OC)cc3Cl)cccc2c1N(CCF)CCOC [Example 25, 7-(2-Chloro-4-methoxyphenyl)-2-ethyl-N-(2-fluoroethyl)-N-(2-methoxyethyl)pyrazolo[1,5-a]pyridin-3-amine]
111.9 to 114.9 | COc1ccc(-c2cccc3c(C(C)C)c(C)nn23)c(Cl)c1 [Example 40, 7-(2-Chloro-4-methoxyphenyl)-3-isopropyl-2-methylpyrazolo[1,5-a]pyridine]

From US7151109B2, “Pyrazolo[1,5-a]pyridine derivatives and their use as neurotransmitter modulators” (Pharmacia & Upjohn Company LLC, priority 2002, dated 2006)
